Assay results reported in ChEMBL document CHEMBL5247643, “Discovery and Characterization of BAY-805, a Potent and Selective Inhibitor of Ubiquitin-Specific Protease USP21” (J Med Chem, 2023).
The source made the active and inactive calls. The calls are words filed in the database; no cut-off is given here.

Legend:
MDA-MB-231 = test: Antiproliferative activity against human MDA-MB-231 cells assessed as reduction in cell viability up to 30 uM incubated for 72 hrs by CellTiter-Glo luminescent assay; type: functional, cell-based
U2OS = test: Antiproliferative activity against human U2OS cells assessed as reduction in cell viability up to 30 uM incubated for 72 hrs by CellTiter-Glo luminescent assay; type: functional, cell-based
[1] = biological target: T1, Ubiquitin carboxyl-terminal hydrolase 4 (Homo sapiens) (UniProt Q13107); test: Inhibition of human USP4 using ubiquitin rhodamine 110 as substrate at 10 to 50 uM by fluorometric assay; details: dose 10-50 µM
T1 sequence (whole entry): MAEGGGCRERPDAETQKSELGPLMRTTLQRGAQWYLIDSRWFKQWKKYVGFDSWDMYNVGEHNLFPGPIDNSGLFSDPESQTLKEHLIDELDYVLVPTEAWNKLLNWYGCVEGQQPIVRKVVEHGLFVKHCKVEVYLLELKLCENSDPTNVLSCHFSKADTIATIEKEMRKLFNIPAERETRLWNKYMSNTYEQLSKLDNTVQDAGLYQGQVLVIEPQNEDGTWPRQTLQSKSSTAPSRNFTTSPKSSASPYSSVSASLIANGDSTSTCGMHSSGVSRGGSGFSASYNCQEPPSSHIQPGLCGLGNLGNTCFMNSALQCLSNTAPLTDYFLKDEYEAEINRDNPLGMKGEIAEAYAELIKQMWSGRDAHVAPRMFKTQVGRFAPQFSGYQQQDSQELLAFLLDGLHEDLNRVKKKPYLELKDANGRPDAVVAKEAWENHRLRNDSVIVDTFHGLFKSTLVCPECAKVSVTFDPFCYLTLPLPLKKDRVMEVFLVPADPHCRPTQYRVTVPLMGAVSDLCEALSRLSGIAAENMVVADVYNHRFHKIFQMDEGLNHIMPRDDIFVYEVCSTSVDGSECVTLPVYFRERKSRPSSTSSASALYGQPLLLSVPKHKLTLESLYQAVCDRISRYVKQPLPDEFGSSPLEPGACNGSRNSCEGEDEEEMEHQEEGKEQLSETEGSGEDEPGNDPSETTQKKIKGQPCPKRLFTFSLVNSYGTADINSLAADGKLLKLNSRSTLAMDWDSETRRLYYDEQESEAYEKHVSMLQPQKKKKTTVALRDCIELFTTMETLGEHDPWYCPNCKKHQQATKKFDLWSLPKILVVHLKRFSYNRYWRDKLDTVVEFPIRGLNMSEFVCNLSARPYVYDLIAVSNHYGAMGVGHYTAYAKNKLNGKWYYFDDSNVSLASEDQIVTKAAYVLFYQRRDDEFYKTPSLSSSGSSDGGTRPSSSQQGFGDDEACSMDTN

[2] = biological target: Ubiquitin carboxyl-terminal hydrolase 7 (Homo sapiens) (UniProt Q93009); test: Inhibition of human USP7 (1 to 1102 residues) expressed in Sf9 cells using ubiquitin rhodamine 110 as substrate assessed as remaining enzyme activity at 10 to 50 uM by fluorometric assay; details: dose 10-50 µM
Chain of Ubiquitin carboxyl-terminal hydrolase 7 (Homo sapiens) (Q93009 whole entry, looked up, the tested form may be a part): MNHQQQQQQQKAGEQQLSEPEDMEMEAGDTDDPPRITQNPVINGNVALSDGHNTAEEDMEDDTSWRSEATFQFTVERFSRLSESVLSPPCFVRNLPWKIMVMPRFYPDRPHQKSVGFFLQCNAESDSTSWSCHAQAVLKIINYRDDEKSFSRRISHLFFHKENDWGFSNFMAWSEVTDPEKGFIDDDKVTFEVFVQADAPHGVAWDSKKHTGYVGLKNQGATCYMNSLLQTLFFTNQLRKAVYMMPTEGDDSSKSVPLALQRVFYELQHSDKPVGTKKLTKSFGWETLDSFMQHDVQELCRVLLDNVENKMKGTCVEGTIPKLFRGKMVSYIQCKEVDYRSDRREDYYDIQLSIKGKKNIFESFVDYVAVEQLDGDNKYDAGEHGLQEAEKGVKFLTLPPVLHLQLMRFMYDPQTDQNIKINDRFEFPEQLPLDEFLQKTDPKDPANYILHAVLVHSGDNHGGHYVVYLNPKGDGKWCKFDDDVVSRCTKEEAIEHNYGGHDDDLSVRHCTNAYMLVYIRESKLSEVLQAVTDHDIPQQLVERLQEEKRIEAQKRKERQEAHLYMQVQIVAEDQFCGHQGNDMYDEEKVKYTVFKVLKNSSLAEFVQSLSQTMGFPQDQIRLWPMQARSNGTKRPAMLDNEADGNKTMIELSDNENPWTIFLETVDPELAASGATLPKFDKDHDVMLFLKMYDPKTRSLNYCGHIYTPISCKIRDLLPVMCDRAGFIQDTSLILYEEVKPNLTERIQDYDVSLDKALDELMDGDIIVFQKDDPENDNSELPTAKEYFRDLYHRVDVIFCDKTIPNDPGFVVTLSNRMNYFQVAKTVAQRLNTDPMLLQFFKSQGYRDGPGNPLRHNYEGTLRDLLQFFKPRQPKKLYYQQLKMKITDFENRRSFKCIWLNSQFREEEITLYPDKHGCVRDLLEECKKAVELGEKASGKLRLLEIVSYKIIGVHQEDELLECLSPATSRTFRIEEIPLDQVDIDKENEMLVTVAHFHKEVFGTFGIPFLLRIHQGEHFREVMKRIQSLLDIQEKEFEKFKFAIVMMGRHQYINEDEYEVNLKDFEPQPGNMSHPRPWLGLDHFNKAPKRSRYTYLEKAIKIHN

[3] = biological target: T2, Ubiquitin carboxyl-terminal hydrolase 22 (Homo sapiens) (UniProt Q9UPT9); test: Inhibition of human USP22 (1 to 525 residues) expressed in Sf9 cells using ubiquitin rhodamine 110 as substrate assessed as remaining enzyme activity at 10 to 50 uM by fluorometric assay; details: dose 10-50 µM
T2 sequence (whole entry): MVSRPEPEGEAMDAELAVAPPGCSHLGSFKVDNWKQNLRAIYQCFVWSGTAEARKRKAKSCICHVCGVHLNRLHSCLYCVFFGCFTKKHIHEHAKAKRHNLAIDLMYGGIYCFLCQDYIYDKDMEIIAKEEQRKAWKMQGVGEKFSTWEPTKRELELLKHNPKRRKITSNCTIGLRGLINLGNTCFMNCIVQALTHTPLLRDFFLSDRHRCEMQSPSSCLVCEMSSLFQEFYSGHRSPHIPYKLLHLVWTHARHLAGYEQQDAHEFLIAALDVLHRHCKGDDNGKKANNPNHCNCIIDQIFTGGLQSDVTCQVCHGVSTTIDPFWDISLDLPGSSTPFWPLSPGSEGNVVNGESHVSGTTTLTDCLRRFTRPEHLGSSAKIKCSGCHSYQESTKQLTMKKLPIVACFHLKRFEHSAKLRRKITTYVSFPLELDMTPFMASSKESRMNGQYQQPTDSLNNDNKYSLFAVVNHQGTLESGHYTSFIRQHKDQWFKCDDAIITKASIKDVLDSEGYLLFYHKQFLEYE

[4] = biological target: Ubiquitin carboxyl-terminal hydrolase 9X (Homo sapiens) (UniProt Q93008); test: Inhibition of human USP9X (1551 to 1970 residues) expressed in Escherichia coli BL21 (DE3) using ubiquitin rhodamine 110 as substrate assessed as remaining enzyme activity at 10 to 50 uM by fluorometric assay; details: dose 10-50 µM
Chain of Ubiquitin carboxyl-terminal hydrolase 9X (Homo sapiens) (Q93008 whole entry, the tested form may be a part): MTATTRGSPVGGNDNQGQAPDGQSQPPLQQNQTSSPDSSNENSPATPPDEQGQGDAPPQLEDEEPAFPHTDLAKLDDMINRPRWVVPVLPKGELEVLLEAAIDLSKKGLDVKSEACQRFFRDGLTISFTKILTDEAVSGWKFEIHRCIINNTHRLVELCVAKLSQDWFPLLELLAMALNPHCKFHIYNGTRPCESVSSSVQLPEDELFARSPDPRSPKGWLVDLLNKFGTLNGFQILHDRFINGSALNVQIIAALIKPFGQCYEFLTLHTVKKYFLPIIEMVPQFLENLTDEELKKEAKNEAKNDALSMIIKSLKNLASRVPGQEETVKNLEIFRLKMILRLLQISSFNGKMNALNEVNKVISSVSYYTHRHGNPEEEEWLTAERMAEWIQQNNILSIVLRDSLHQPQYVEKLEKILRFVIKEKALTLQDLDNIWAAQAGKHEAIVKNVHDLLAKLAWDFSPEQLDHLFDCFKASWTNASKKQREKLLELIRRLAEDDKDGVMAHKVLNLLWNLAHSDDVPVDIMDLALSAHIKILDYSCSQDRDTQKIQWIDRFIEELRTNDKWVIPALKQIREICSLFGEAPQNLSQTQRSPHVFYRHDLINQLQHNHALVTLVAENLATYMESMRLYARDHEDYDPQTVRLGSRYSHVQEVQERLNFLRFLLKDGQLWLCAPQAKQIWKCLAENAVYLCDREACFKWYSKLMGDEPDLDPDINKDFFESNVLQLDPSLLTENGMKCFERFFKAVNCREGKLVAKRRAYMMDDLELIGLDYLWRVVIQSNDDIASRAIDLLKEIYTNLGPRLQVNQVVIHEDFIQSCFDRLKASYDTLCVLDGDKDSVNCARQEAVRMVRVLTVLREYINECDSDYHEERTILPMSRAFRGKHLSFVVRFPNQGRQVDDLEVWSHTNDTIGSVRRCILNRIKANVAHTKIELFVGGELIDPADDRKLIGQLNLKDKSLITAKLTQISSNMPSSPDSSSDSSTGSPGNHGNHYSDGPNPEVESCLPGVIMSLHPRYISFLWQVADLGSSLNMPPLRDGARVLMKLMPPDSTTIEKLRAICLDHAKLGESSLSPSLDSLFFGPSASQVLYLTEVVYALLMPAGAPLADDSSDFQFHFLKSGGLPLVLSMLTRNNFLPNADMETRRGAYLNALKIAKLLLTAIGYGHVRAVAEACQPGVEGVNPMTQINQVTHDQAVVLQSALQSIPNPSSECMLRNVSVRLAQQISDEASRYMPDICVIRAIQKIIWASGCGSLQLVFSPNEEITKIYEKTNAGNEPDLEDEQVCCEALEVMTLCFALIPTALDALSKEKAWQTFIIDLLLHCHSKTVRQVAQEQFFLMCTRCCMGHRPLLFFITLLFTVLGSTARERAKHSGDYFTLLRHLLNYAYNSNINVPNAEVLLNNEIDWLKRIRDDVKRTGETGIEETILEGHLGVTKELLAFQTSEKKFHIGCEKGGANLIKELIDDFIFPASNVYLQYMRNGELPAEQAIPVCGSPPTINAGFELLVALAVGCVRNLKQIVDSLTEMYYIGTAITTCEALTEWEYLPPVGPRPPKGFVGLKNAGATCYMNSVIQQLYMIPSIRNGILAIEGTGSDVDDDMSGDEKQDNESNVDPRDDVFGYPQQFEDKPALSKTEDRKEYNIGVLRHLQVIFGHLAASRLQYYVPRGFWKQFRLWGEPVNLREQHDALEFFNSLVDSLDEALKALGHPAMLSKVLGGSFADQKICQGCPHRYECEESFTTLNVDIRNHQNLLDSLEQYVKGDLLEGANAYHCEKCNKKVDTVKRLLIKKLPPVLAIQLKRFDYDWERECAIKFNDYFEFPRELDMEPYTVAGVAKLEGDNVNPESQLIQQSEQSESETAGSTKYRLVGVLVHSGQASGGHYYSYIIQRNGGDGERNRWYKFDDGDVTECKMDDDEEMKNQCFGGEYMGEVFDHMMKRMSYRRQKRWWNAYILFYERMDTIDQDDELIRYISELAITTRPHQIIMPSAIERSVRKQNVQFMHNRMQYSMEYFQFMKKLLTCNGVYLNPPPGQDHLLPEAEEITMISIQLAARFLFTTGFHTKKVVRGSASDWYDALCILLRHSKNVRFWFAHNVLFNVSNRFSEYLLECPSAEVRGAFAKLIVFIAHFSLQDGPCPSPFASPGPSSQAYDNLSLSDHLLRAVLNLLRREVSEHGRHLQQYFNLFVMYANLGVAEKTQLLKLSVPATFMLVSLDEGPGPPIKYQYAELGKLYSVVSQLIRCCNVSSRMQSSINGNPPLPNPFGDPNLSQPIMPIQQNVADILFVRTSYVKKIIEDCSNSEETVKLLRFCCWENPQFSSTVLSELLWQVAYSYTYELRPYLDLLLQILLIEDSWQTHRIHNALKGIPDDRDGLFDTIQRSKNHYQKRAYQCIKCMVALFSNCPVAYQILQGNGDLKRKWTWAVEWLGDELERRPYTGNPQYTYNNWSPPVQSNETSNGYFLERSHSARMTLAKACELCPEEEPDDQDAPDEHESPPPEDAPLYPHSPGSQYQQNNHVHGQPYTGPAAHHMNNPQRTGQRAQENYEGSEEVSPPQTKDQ

[5] = biological target: T3, Ubiquitin carboxyl-terminal hydrolase 5 (Homo sapiens) (UniProt P45974); test: Inhibition of human USP5 (1 to 835 residues) expressed in Sf9 cells using ubiquitin rhodamine 110 as substrate assessed as remaining enzyme activity at 10 to 50 uM by fluorometric assay; details: dose 10-50 µM
T3 sequence (whole entry): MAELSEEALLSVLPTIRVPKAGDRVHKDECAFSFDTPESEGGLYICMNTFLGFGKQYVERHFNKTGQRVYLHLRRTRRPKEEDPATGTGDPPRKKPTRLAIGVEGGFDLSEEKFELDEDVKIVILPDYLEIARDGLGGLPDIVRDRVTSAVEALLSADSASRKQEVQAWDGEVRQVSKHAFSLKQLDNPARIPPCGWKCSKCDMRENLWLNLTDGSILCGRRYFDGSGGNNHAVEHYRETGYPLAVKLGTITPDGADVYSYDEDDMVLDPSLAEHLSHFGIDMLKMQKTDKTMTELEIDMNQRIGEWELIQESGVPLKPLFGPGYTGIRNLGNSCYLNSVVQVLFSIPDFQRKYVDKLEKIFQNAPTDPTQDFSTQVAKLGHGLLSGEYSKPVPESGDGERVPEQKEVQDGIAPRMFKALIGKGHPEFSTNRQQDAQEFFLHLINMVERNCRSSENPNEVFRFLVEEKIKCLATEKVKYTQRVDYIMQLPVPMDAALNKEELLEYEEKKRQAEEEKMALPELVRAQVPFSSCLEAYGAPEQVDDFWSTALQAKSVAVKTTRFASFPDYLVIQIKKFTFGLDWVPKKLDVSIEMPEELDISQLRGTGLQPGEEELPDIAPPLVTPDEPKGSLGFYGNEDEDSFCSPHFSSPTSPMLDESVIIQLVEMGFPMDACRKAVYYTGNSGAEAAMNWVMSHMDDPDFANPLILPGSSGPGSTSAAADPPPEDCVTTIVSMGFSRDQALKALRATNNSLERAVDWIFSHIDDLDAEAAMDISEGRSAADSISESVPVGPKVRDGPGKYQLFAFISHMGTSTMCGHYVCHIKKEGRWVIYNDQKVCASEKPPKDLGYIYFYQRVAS

Ataxin-3 (Homo sapiens) = Ataxin-3 (Homo sapiens) (UniProt P54252); test: Inhibition of human Ataxin-3 (1 to 370 residues) expressed in Escherichia coli BL21 (DE3) using ubiquitin rhodamine 110 as substrate assessed as remaining enzyme activity at 10 to 50 uM by fluorometric assay; details: dose 10-50 µM
Chain of Ataxin-3 (Homo sapiens) (P54252 whole entry, the tested form may be a part): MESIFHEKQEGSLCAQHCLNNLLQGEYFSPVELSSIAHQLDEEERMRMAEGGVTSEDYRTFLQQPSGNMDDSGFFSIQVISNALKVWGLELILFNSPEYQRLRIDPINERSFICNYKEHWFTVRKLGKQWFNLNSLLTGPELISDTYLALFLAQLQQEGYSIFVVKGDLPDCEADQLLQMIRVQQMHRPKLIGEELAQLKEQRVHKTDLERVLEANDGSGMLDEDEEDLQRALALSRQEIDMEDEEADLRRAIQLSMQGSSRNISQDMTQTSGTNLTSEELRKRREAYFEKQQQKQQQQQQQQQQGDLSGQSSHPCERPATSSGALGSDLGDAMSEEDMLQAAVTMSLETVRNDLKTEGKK

SMILES | Activity (MDA-MB-231) | Activity (U2OS) | inhibition [1] | Activity [2] | Activity [3] | Activity [4] | Activity [5] | Activity (Ataxin-3 (Homo sapiens))
CC(C)C[C@H](NC(=O)C1(C(F)(F)F)CCCCC1)C(=O)Nc1nnc(Cc2ccc(C#N)cc2)s1 | inactive | inactive | inactive | – | – | – | – | –
CC(NC(=O)C1CCCC1)C(=O)Nc1nnc(Cc2ccc([N+](=O)[O-])cc2)s1 (racemic) | – | – | – | < 50% | < 50% | < 50% | < 50% | < 50%
